Measured values reported in US6271266A (Takeda Chemical Industries, Ltd., priority 1996, dated 2001).

Key:
[1] = test system: patients with Alzheimer's disease; conditions: 90 mg or 120 mg 3 times a day (270 or 360 mg per day), 6 months; cited from earlier work
rat hippocampal neurons [2] = test: LDH leakage from cultured rat hippocampal neurons exposed to Aβ1-40; assay type: cell-based
Protocol: (§1) The cultured rat hippocampal neurons were prepared by the following procedure.
From the 18-day viviparous SD rat brain, the hippocampus was isolated on ice and treated with 0.25% trypsin and 0.1 mg/ml deoxyribonuclease I in Hank's solution at 37° C. for 10 minutes. The enzyme-treated cells were collected with a filter and suspended in Eagle's MEM containing 50 U/ml penicillin, 50 μg/ml streptomycin, 10% fetal calf serum, and 1% B27 Supplement (GIBCO). The suspension was diluted and seeded on a 48-well plate (COSTAR) precoated with poly-L-lysine, 100,000 cells/300 μl/well. Culture was carried out in the presence of 5% carbon dioxide gas at 37° C. […] On day 7 of culture, the medium was further replaced with MEM-N2 containing Aβ1-40 (Bachem) and the test drug, and the efficacy of the drug against the toxicity of Aβ1-40 was evaluated.
(§2) The lactate dehydrogenase (LDH) activity released extracellularly from the injured cells into the medium was assayed over 3-5 days after treatment and the toxicity was evaluated using the assayed activity as an indicator. In addition, on day 4 after addition of the drug, the cells were fixed with 4% paraformaldehyde, stained with anti-MAP2 antibody (Amersham) and randomly photographed under the microscope, and the number of neurons per visual field was counted.

[3] = test system: rat retinal neuron-neuroblastoma hybrid N18-RE-105 cells; conditions: cited from earlier work
rat hippocampal neurons [4] = test: Number of viable neurons (anti-MAP2 staining) after Aβ1-40; assay type: cell-based; conditions: Aβ1-40 10 μM, day 4 after addition, FIG. 3
Protocol: as §1
From the 18-day viviparous SD rat brain, the hippocampus was isolated on ice and treated with 0.25% trypsin and 0.1 mg/ml deoxyribonuclease I in Hank's solution at 37° C. for 10 minutes. The enzyme-treated cells were collected with a filter and suspended in Eagle's MEM containing 50 U/ml penicillin, 50 μg/ml streptomycin, 10% fetal calf serum, and 1% B27 Supplement (GIBCO). The suspension was diluted and seeded on a 48-well plate (COSTAR) precoated with poly-L-lysine, 100,000 cells/300 μl/well. Culture was carried out in the presence of 5% carbon dioxide gas at 37° C. On day 4 of culture, the medium was replaced with Eagle's MEM (MEM-N2) containing 50 U/ml penicillin, 50 μg/ml streptomycin, 10 mM HEPES-Na (pH 7.3) and N2 Supplement. On day 7 of culture, the medium was further replaced with MEM-N2 containing Aβ1-40 (Bachem) and the test drug, and the efficacy of the drug against the toxicity of Aβ1-40 was evaluated.
as §2

[5] = test system: Alzheimer type senile dementia; conditions: cited from earlier work
cultured nerve cells = conditions: cited from earlier work

Question: For `COC1=C(OC)C(=O)C(CCCCCCCCCCO)=C(C)C1=O` [idebenone, 6-(10-hydroxydecyl)-2,3-dimethoxy-5-methyl-1,4-benzoquinone], which GOT time course [1] is on record?
Answer: The GOT time course was “the changes were small with substantially no difference from the control values”.

Question: And the GPT time course [1]?
Answer: The GPT time course was “the changes were small with substantially no difference from the control values”.

Question: What about the “release of LDH” value (rat hippocampal neurons [2]; idebenone 100 nM, Aβ1-40 10 μM, 3-5 days following addition, FIG. 2) of the same compound?
Answer: Its value is “suppressed the release of LDH”.

Question: And the glutamate-induced neuronal death [3]?
Answer: Its glutamate-induced neuronal death is “suppresses glutamate-induced neuronal death”.

Question: And the “neuroprotection / reactive oxygen species scavenging” value [3]?
Answer: The value was “exerts the neuroprotection by the reactive oxygen species scavenging activity”.

Question: What about the neuronal death (rat hippocampal neurons [4]; idebenone 100 nM) of the same compound?
Answer: Its neuronal death is “inhibited neuronal death significantly”.

Question: What about the “number of viable cells” value (rat hippocampal neurons [4]; idebenone 100 nM, anti-MAP2 antibody) of the same compound?
Answer: The value was “approximately equal to the number of viable cells in the control group”.

Question: What about the “efficacy in Alzheimer type senile dementia” value ([5]; 90 mg daily to adult patients) of the same compound?
Answer: The value was “efficacy”.

Question: What about the “clinical effect in Alzheimer type senile dementia” value ([5]; high doses (270 mg-360 mg day per adult)) of the same compound?
Answer: Its value is “clinically effective”.

Question: With Aβ1-40: β-amyloid protein 1-40 (Bachem) as the compound, how does the “leakage of LDH activity into the medium (toxicity)” value (rat hippocampal neurons [2]; 3-5 days after addition of Aβ1-40, FIG. 1) read?
Answer: Its value is “dose-dependent toxicity”.

Question: What about the number of neurons (rat hippocampal neurons [4]) of the same compound?
Answer: Its number of neurons is “decline in the number of neurons”.

Question: With β-amyloid as the compound, how does the neuronal toxicity (cultured nerve cells) read?
Answer: Its neuronal toxicity is “shows neuronal toxicity”.
